{
  "source": "patent US11504330B2",
  "about": "“Formulation comprising particles containing a water-swellable or water-soluble polymeric component and a lipid component” (PERORA GMBH, priority 2014, dated 2022)",
  "assay": "Tryptophan release / dissolution in fasted-state simulated gastric fluid (FaSSGF)",
  "format": "physicochemical",
  "details": "30 mg powder in 22 mL FaSSGF, 37° C., agitated",
  "experimental": "FaSSGF was prepared by dissolving 1 g of NaCl (Sigma-Aldrich) in 450 mL of water, adding 30 mg of SIF powder (biorelvant.com), adjusting the pH to 2.0 with 0.1 N HCl (Sigma-Aldrich) and adding water to a final volume of 500 mL.\n30 mg of tryptophan powder were suspended in 22 mL FaSSGF at 37° C. and agitated (shaker ST5 from CAT, Germany). Aliquots were removed at time intervals of 5 min, and tryptophan concentration was quantified using absorption measurement at a wavelength of 280 nm in a NanoDrop® 2000 device (Thermo Scientific, USA).",
  "data": [
    {"smiles": "N[C@@H](Cc1c[nH]c2ccccc12)C(=O)O", "note": "[Tryptophan, L-Tryptophan]", "values": [
      {"measurement": "time after which quantitatively dissolved", "result": 10, "unit": "min"}
    ]}
  ]
}
